The record followed here is ChEMBL document CHEMBL5370693, “Kinases Controlling Stability of the Oncogenic MYCN Protein” (ACS Med Chem Lett, 2023).

Assay [1] concerns Phosphatidylinositol 4,5-bisphosphate 3-kinase catalytic subunit alpha isoform (Homo sapiens), P42336 [M1043I]. Put plainly: Inhibition of PIK3CA M1043I mutant (unknown origin) assessed as remaining activity at 5 uM incubated for 1 hr by KINOMEscan competitive binding assay relative to control.
The target in assay [2] is Serine/threonine-protein kinase Chk2 (Homo sapiens) (UniProt O96017). As to the kind of experiment: Inhibition of CHEK2 (unknown origin) assessed as remaining activity at 5 uM incubated for 1 hr by KINOMEscan competitive binding assay relative to control.
The target of assay [3] is T1, Phosphatidylinositol 4,5-bisphosphate 3-kinase catalytic subunit delta isoform (Homo sapiens) (UniProt O00329).
T1 sequence (whole entry): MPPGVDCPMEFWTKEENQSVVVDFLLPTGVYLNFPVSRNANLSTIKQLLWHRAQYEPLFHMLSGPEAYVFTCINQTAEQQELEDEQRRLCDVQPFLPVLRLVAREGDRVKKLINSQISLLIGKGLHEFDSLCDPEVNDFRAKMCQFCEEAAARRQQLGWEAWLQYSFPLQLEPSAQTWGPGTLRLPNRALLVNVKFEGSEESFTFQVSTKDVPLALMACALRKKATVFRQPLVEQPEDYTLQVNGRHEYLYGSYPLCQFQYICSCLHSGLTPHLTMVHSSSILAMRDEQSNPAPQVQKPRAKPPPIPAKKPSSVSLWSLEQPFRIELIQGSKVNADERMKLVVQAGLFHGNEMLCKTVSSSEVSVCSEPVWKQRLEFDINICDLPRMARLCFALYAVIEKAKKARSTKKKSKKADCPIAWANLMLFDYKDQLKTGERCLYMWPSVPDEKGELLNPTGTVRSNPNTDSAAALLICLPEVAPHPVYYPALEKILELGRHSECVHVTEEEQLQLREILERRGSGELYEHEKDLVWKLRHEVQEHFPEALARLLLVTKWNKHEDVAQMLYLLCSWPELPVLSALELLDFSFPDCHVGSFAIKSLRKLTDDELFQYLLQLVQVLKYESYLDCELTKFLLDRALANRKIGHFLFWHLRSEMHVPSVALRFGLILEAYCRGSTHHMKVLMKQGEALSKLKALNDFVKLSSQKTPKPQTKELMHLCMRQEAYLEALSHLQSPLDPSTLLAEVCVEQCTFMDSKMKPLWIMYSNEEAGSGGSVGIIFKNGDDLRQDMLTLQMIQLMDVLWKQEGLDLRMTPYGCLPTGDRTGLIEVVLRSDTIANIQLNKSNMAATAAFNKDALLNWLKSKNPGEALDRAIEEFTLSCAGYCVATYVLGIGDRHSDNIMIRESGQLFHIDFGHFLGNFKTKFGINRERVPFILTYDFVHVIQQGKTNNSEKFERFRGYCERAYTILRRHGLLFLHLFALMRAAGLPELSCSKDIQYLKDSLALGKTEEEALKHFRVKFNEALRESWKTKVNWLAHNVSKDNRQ
Put plainly: Inhibition of PIK3CD (unknown origin) assessed as remaining activity at 5 uM incubated for 1 hr by KINOMEscan competitive binding assay relative to control.

The test system of assay [4] is Phosphatidylinositol 4,5-bisphosphate 3-kinase catalytic subunit alpha isoform (Homo sapiens), P42336 [I800L]. As to the kind of experiment: Inhibition of PIK3CA I800L mutant (unknown origin) assessed as remaining activity at 5 uM incubated for 1 hr by KINOMEscan competitive binding assay relative to control.
Assay [5] concerns the target Casein kinase II subunit alpha (Homo sapiens) (UniProt P68400). As to the kind of experiment: Inhibition of CSNK2A1 (unknown origin) assessed as remaining activity at 5 uM incubated for 1 hr by KINOMEscan competitive binding assay relative to control.
The test system of assay [6] is Phosphatidylinositol 4,5-bisphosphate 3-kinase catalytic subunit alpha isoform (Homo sapiens), P42336 [E542K]. Put plainly: Inhibition of PIK3CA E542K mutant (unknown origin) assessed as remaining activity at 5 uM incubated for 1 hr by KINOMEscan competitive binding assay relative to control.
The target of assay [7] is Casein kinase II subunit alpha' (Homo sapiens) (UniProt P19784). Put plainly: Inhibition of CSNK2A2 (unknown origin) assessed as remaining activity at […] incubated for 1 hr by KINOMEscan competitive binding assay relative to control.
The target in assay [8] is Phosphatidylinositol 4,5-bisphosphate 3-kinase catalytic subunit alpha isoform (Homo sapiens) (UniProt P42336). Put plainly: Inhibition of PIK3CA (unknown origin) assessed as remaining activity at […] incubated for 1 hr by KINOMEscan competitive binding assay relative to control.
The subject of assay [9] is Phosphatidylinositol 4,5-bisphosphate 3-kinase catalytic subunit alpha isoform (Homo sapiens), P42336 [E545A]. As to the kind of experiment: Inhibition of PIK3CA E545A mutant (unknown origin) assessed as remaining activity at […] incubated for 1 hr by KINOMEscan competitive binding assay relative to control.
Assay [10] addresses T2, Serine/threonine-protein kinase Chk1 (Homo sapiens) (UniProt O14757).
T2 sequence (whole entry): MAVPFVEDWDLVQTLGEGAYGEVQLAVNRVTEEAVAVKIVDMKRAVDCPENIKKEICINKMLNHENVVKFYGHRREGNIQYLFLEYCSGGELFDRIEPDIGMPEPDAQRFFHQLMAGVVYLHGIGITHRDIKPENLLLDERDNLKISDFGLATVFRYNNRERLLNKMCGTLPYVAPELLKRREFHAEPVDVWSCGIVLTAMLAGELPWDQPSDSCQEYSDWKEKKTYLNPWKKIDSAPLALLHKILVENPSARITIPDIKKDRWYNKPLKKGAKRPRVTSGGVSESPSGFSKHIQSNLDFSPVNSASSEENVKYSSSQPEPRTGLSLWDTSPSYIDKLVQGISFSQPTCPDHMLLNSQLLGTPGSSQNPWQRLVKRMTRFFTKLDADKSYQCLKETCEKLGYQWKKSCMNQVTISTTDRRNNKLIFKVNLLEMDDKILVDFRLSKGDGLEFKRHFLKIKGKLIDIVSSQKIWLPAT
As to the kind of experiment: Inhibition of CHEK1 (unknown origin) assessed as remaining activity at […] incubated for 1 hr by KINOMEscan competitive binding assay relative to control.

In assay [11] the test system is Phosphatidylinositol 4,5-bisphosphate 3-kinase catalytic subunit alpha isoform (Homo sapiens), P42336 [H1047L]. Put plainly: Inhibition of PIK3CA H1047L mutant (unknown origin) assessed as remaining activity at 10 uM incubated for 1 hr by KINOMEscan competitive binding assay relative to control.
In assay [12] the target is Phosphatidylinositol 4,5-bisphosphate 3-kinase catalytic subunit gamma isoform (Homo sapiens) (UniProt P48736). Put plainly: Inhibition of PIK3CG (unknown origin) assessed as remaining activity at 10 uM incubated for 1 hr by KINOMEscan competitive binding assay relative to control.
In assay [13] the target is Phosphatidylinositol 4,5-bisphosphate 3-kinase catalytic subunit beta isoform (Homo sapiens) (UniProt P42338). As to the kind of experiment: Inhibition of PIK3CB (unknown origin) assessed as remaining activity at 10 uM incubated for 1 hr by KINOMEscan competitive binding assay relative to control.

Regarding `O=c1[nH]c2ccc(Cl)cc2c(N[C@@H]2CN3CCC2CC3)c1-c1nc2ccccc2[nH]1`, the Activity was determined as 85% in assay [1]; 2.9% in assay [2]; 57% in assay [3]; 100% in assay [4]; 1.6% in [5]; 93% in assay [6].

In the case of `CC(C)=CCc1c2c(c3occ(-c4ccc(O)c(O)c4)c(=O)c3c1O)C=CC(C)(C)O2`, the Activity is 100% in assay [7], 96% in assay [8], 96% in assay [9] and 76% in assay [10].

As for `NC(=O)Nc1cc(-c2cccc(F)c2)sc1C(=O)N[C@H]1CCCNC1`, the Activity stood at 49% in [11], 77% in assay [12] and 87% in assay [13].
